From PubChem BioAssay (NCI)
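48-hour exposure; five concentrations; linearly interpolated endpoints. The concentration for 50% growth inhibition is given as GI50. TGI marks complete inhibition of growth.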

What was measured:
Assay in all cases: growth of human tumour cells (NCI), 48 h
786-0 renal = tested on: 786-0 renal
BT-549 breast = tested on: BT-549 breast
CCRF-CEM leukemia = tested on: CCRF-CEM leukemia
COLO 205 colon = tested on: COLO 205 colon
MDA-MB-435 = tested on: MDA-MB-435
NCI-H522 lung = tested on: NCI-H522 lung
SF-539 CNS = tested on: SF-539 CNS
UACC-257 melanoma = tested on: UACC-257 melanoma

## Cc1cc2ncn(CC(=O)O)c2cc1C
786-0 renal
  TGI: > 100 µM
BT-549 breast
  TGI: > 100 µM
CCRF-CEM leukemia
  TGI: > 100 µM
COLO 205 colon
  TGI: > 100 µM
MDA-MB-435
  TGI: > 100 µM
NCI-H522 lung
  TGI: > 100 µM
SF-539 CNS
  TGI: > 100 µM
UACC-257 melanoma
  TGI: > 100 µM

## COc1cc2c(cc1OC)C(CCN)=NCC2
786-0 renal
  TGI: 18.4 µM
BT-549 breast
  TGI: 33.6 µM
CCRF-CEM leukemia
  TGI: 5.12 µM
COLO 205 colon
  TGI: 27.4 µM
MDA-MB-435
  TGI: 31.4 µM
NCI-H522 lung
  TGI: 10.3 µM
SF-539 CNS
  TGI: 16.6 µM
UACC-257 melanoma
  TGI: 32.9 µM

## CCC1c2[nH]c3ccccc3c2C[C@H]2C(=O)NC(C)C(=O)N12 (some centres not stated)
786-0 renal
  TGI: > 100 µM
BT-549 breast
  TGI: > 100 µM
COLO 205 colon
  TGI: > 100 µM
MDA-MB-435
  TGI: > 100 µM
NCI-H522 lung
  TGI: > 100 µM
UACC-257 melanoma
  TGI: > 100 µM

## O=C(CCCc1cccc2[nH]c3c(c12)CN(Cc1ccccc1)CC3)c1ccc(F)cc1
786-0 renal
  TGI: > 100 µM
BT-549 breast
  TGI: > 100 µM
CCRF-CEM leukemia
  TGI: > 100 µM
COLO 205 colon
  TGI: 31.4 µM
MDA-MB-435
  TGI: > 100 µM
NCI-H522 lung
  TGI: > 91.1 µM
SF-539 CNS
  TGI: > 100 µM
UACC-257 melanoma
  TGI: > 100 µM

## Cc1nc2c(Cl)cc(Cl)cc2c2c1CCO2
786-0 renal
  TGI: > 100 µM
BT-549 breast
  TGI: > 100 µM
CCRF-CEM leukemia
  TGI: > 100 µM
COLO 205 colon
  TGI: > 100 µM
MDA-MB-435
  TGI: > 100 µM
NCI-H522 lung
  TGI: > 100 µM
SF-539 CNS
  TGI: > 100 µM
UACC-257 melanoma
  TGI: > 100 µM

## CC1=C[P+](c2ccccc2)(c2ccccc2)c2ccccc2O1
786-0 renal
  TGI: > 100 µM
BT-549 breast
  TGI: > 100 µM
COLO 205 colon
  TGI: 2.89 µM
MDA-MB-435
  TGI: 12 µM
NCI-H522 lung
  TGI: 17.3 µM
SF-539 CNS
  TGI: 31.3 µM
UACC-257 melanoma
  TGI: > 100 µM

## O=C1CCCC2=C1CC1=C(CCCC1=O)N2c1ccc(Cl)cc1
786-0 renal
  TGI: > 100 µM
BT-549 breast
  TGI: > 100 µM
CCRF-CEM leukemia
  TGI: > 100 µM
COLO 205 colon
  TGI: > 100 µM
MDA-MB-435
  TGI: > 100 µM
SF-539 CNS
  TGI: > 100 µM
UACC-257 melanoma
  TGI: > 100 µM

## COC(=O)[C@@]12CSC[C@]1(C(=O)OC)N[C@@H](c1ccccc1O)C2
786-0 renal
  TGI: > 100 µM
BT-549 breast
  TGI: > 100 µM
CCRF-CEM leukemia
  TGI: > 100 µM
COLO 205 colon
  TGI: > 100 µM
MDA-MB-435
  TGI: > 100 µM
NCI-H522 lung
  TGI: > 100 µM
SF-539 CNS
  TGI: > 100 µM
UACC-257 melanoma
  TGI: > 100 µM

## CC1OC(NCCNCCNC2OC(C)C(O)C(O)C2O)C(O)C(O)C1O (configuration not stated)
786-0 renal
  TGI: > 100 µM
BT-549 breast
  TGI: > 100 µM
COLO 205 colon
  TGI: > 100 µM
NCI-H522 lung
  TGI: > 100 µM
SF-539 CNS
  TGI: > 100 µM
UACC-257 melanoma
  TGI: > 100 µM

## NCCCn1c(Cl)nc2ccccc21
786-0 renal
  TGI: > 100 µM
BT-549 breast
  TGI: > 100 µM
CCRF-CEM leukemia
  TGI: > 100 µM
COLO 205 colon
  TGI: > 100 µM
MDA-MB-435
  TGI: > 100 µM
NCI-H522 lung
  TGI: > 100 µM

## O=C1c2c(c3c4cc(F)ccc4oc3c3[nH]c4ccccc4c23)C(=O)N1O
CCRF-CEM leukemia
  GI50: 239 nM
  TGI: > 100 µM
COLO 205 colon
  GI50: 4.15 µM
  TGI: > 100 µM
MDA-MB-435
  GI50: 3.02 µM
  TGI: > 100 µM
NCI-H522 lung
  GI50: 530 nM
  TGI: 5.41 µM
SF-539 CNS
  GI50: 1600 nM
  TGI: 9.09 µM
UACC-257 melanoma
  GI50: 2310 nM
  TGI: 6.68 µM

## C(=N\NC1=NCCCCN1)/c1ccc2ccccc2c1
786-0 renal
  TGI: 67.9 µM
BT-549 breast
  TGI: > 100 µM
CCRF-CEM leukemia
  TGI: > 100 µM
COLO 205 colon
  TGI: 31.5 µM
MDA-MB-435
  TGI: 34.7 µM
NCI-H522 lung
  TGI: 87.1 µM
SF-539 CNS
  TGI: 51.3 µM
UACC-257 melanoma
  TGI: 46.6 µM

## CCOC(CBr)OC1C(=O)OCC1(C)C (configuration not stated)
786-0 renal
  TGI: > 100 µM
BT-549 breast
  TGI: > 100 µM
CCRF-CEM leukemia
  TGI: > 100 µM
COLO 205 colon
  TGI: > 100 µM
MDA-MB-435
  TGI: > 100 µM
NCI-H522 lung
  TGI: > 100 µM
UACC-257 melanoma
  TGI: > 100 µM

## CC1=C(C)C(=O)OC(C(C)(O)C2(O)CC3OC34C3CC(O)C56OC5C=CC(=O)C6(C)C3CCC42C)C1 (configuration not stated)
BT-549 breast
  TGI: 3.11 µM
CCRF-CEM leukemia
  TGI: > 22.2 µM
COLO 205 colon
  TGI: > 29 µM
MDA-MB-435
  TGI: 4.62 µM
NCI-H522 lung
  TGI: 1.97 µM
SF-539 CNS
  TGI: 6.39 µM
UACC-257 melanoma
  TGI: 4.7 µM

## CCOC(=O)NC(Nc1ccc(F)cc1F)(C(F)(F)F)C(F)(F)F
786-0 renal
  TGI: > 100 µM
BT-549 breast
  TGI: > 100 µM
CCRF-CEM leukemia
  TGI: > 100 µM
COLO 205 colon
  TGI: > 100 µM
MDA-MB-435
  TGI: > 100 µM
NCI-H522 lung
  TGI: > 100 µM
SF-539 CNS
  TGI: > 100 µM
UACC-257 melanoma
  TGI: > 100 µM

## Nc1cc(CO)cc(Nc2c3ccccc3nc3ccccc23)c1
786-0 renal
  TGI: 30.4 µM
BT-549 breast
  TGI: 27.7 µM
CCRF-CEM leukemia
  TGI: > 100 µM
COLO 205 colon
  TGI: 23.8 µM
MDA-MB-435
  TGI: 32.6 µM
NCI-H522 lung
  TGI: 18.9 µM
SF-539 CNS
  TGI: 32 µM
UACC-257 melanoma
  TGI: 28.5 µM

## CCN(CC)Cc1cc(N=Nc2c(O)ccc3c(N=Nc4ccc(O)c(CN(CC)CC)c4)c(O)ccc23)ccc1O
786-0 renal
  TGI: 3.75 µM
BT-549 breast
  TGI: 9.11 µM
CCRF-CEM leukemia
  TGI: > 53.3 µM
COLO 205 colon
  TGI: 3.6 µM
MDA-MB-435
  TGI: 20.8 µM
NCI-H522 lung
  TGI: 10.3 µM
SF-539 CNS
  TGI: 9.2 µM
UACC-257 melanoma
  TGI: 16.5 µM

## CC(=O)C1=C(C)N(c2ccccc2)C2(O)C3=C(C(=O)c4ccccc4C3=O)C(O)=CC12Cl (configuration not stated)
786-0 renal
  TGI: > 100 µM
BT-549 breast
  TGI: 30.3 µM
CCRF-CEM leukemia
  TGI: 62.5 µM
COLO 205 colon
  TGI: > 100 µM
MDA-MB-435
  TGI: 6.28 µM
NCI-H522 lung
  TGI: 5.81 µM
SF-539 CNS
  TGI: 15.6 µM
UACC-257 melanoma
  TGI: 19.3 µM

## COc1ccc(C2=C(OC(C)=O)c3cccn3-c3ccc(Cl)cc3S2)cc1
786-0 renal
  TGI: > 10 µM
CCRF-CEM leukemia
  TGI: > 10 µM
COLO 205 colon
  TGI: > 10 µM
MDA-MB-435
  TGI: 4.84 µM
UACC-257 melanoma
  TGI: > 10 µM

## Cc1ccc([N+](=O)[O-])cc1S(=O)(=O)Nc1ccc(C2=NN(S(=O)(=O)c3cc([N+](=O)[O-])ccc3C)C(c3cccs3)C2)cc1 (configuration not stated)
786-0 renal
  TGI: > 100 µM
BT-549 breast
  TGI: > 100 µM
COLO 205 colon
  TGI: 25.3 µM
MDA-MB-435
  TGI: > 100 µM
NCI-H522 lung
  TGI: 79.5 µM
UACC-257 melanoma
  TGI: > 100 µM

## CCOC(=O)/C(C(N)=O)=C(\O)C(=O)/C=C(\O)c1ccc(Cl)cc1
786-0 renal
  TGI: 32.2 µM
BT-549 breast
  TGI: 33.6 µM
CCRF-CEM leukemia
  TGI: 24.4 µM
COLO 205 colon
  TGI: 32.6 µM
MDA-MB-435
  TGI: 57.7 µM
NCI-H522 lung
  TGI: 34.3 µM
UACC-257 melanoma
  TGI: 32.2 µM

## COc1ccc(N2C(=O)C3ON(Cc4ccc(CC(N)=O)cc4)C(c4c5ccccc5c(C)c5ccccc45)C3C2=O)cc1 (configuration not stated)
786-0 renal
  TGI: > 100 µM
BT-549 breast
  TGI: > 100 µM
CCRF-CEM leukemia
  TGI: > 100 µM
MDA-MB-435
  TGI: > 100 µM
NCI-H522 lung
  TGI: > 100 µM
UACC-257 melanoma
  TGI: 46.5 µM

## N=C1OC(CN2CCN(c3ccccc3)CC2)CN1C(=O)Nc1ccccc1 (configuration not stated)
786-0 renal
  TGI: > 100 µM
BT-549 breast
  TGI: > 100 µM
CCRF-CEM leukemia
  TGI: > 100 µM
COLO 205 colon
  TGI: > 100 µM
MDA-MB-435
  TGI: > 100 µM
NCI-H522 lung
  TGI: > 100 µM
UACC-257 melanoma
  TGI: > 100 µM

## COc1ccc(-c2c(C#N)c(N)[nH]c(=S)c2C#N)cc1
786-0 renal
  TGI: 47.3 µM
BT-549 breast
  TGI: 85.4 µM
COLO 205 colon
  TGI: > 100 µM
MDA-MB-435
  TGI: 95.5 µM
NCI-H522 lung
  TGI: 63 µM
SF-539 CNS
  TGI: > 100 µM
UACC-257 melanoma
  TGI: > 100 µM

## O=S1(=O)OCCOS(=O)(=O)C1(F)Cc1ccccc1
786-0 renal
  TGI: > 100 µM
CCRF-CEM leukemia
  TGI: > 100 µM
COLO 205 colon
  TGI: > 100 µM
MDA-MB-435
  TGI: > 100 µM
NCI-H522 lung
  TGI: > 100 µM
SF-539 CNS
  TGI: > 100 µM
